The assay concerns pre-diabetic and type 2 diabetes mellitus patients. Put plainly: Clinical trial: fasting plasma glucose (FPG). Type of assay: in vivo, human. As to conditions: for Effect on fasting plasma glucose level (in words) / Post-treatment FPG - pre-treatment FPG, mean value: 16 weeks of treatment; for Effect on fasting plasma glucose level (in words): Kruskal-Wilcox test; for Post-treatment FPG - pre-treatment FPG, mean value / Post-treatment FPG, mean value / Pre-treatment FPG, mean value: FAS; for Post-treatment FPG, mean value: after 16 weeks of treatment; for Pre-treatment FPG, mean value: baseline before treatment. The protocol:
From June 2015 to October 2018, a double-blind, randomized, and parallel-controlled trial, studying the effects of the combined use of Bifidobacterium and berberine on pre-diabetic and type 2 diabetes mellitus patients, was conducted in 10 research centers in Xi'an, Yan'an and Shangluo of Shaanxi province, etc., including the First Affiliated Hospital of the Fourth Military Medical University. 3) Diagnosed with impaired glucose tolerance or type 2 diabetes mellitus (5.6≤fasting plasma glucose (FPG)<8.0 mmol/L at V1 stage; 6.1≤fasting plasma glucose (FPG)<8.0<mmol/L or 7.8≤2-hour postprandial venous blood glucose (2 h-PPG)<17 mmol/L at V2 stage, please see V1 and V2 in Table 1 below); The trial included an enrollment stage of 2 weeks and a treatment stage of 16 weeks. After passing the first visit 1 (see V1 in Table 1), the subjects entered the enrollment stage, i.e., 2 weeks of lifestyle intervention, followed by a re-screening (see V2 in Table 1). The subjects were subjected to a 16-week course of treatment after passing the screening. See Table 1 for the detailed screening parameters. After the enrollment stage, the baseline data of the 300 successfully enrolled subjects were collected. Meanwhile, the subjects started to receive lifestyle guidance, and were randomly divided into four groups for 16 weeks of treatments. 1) Bifidobacterium group: the subjects were administered with Bifidobacterium capsules (Livzon Pharmaceutical Group Inc., batch no.: 20141013), 0.35 g/capsule, each capsule containing 50,000,000 viable bacteria (Bifidobacterium adolescentis DM8504), 2 capsules/time, 2 times/day, plus berberine placebo tablets (Northeast Pharma Group Shenyang First Pharma Co., Ltd., Lot no.: 20150101, containing 80.2% microcrystalline cellulose, 9.4% pregelatinized starch, 6.4% sodium carboxymethyl starch, 1% magnesium stearate, and 3% copovidone), 0.1 g/tablet, 5 tablets/time, 2 times/day. 2) Berberine group: the subjects were administered with berberine tablets (Northeast Pharma Group Shenyang First Pharma Co., Ltd., Lot no.: 130917, each tablet weighted 0.165 g and contained 0.1 g active berberine ingredient (berberine hydrochloride), with the same excipients as the placebo tablets), 5 tablets/time, 2 times/day, plus Bifidobacterium placebo capsules (Livzon Pharmaceutical Group Inc., Lot no.: 141001, specifically containing 0.348 g spray-dried lactose, and 0.002 g magnesium stearate), 0.35 g/capsule, 2 capsules/time, 2 times/day. 3) Combination Group: the subjects were administered with Bifidobacterium capsules, 0.35 g/capsule, each capsule containing 50,000,000 viable bacteria (B. adolescentis DM8504), 2 capsules/time, 2 times/day, plus berberine tablets, 0.1 g/tablet, each tablet containing 0.1 g active berberine ingredient (berberine hydrochloride), 5 tablets/time, 2 times/day. 4) Control group: the subjects were administered with Bifidobacteria placebo capsules, 0.35 g/capsule, 2 capsules/time, 2 times/day, plus berberine placebo tablets, 0.1 g/tablet, 5 tablets/time, 2 times/day. Bifidobacterium capsules were taken after meals and berberine tablets were taken before meals. After the sample testing was finished, 1) Chi-Squared test and t-test were used to evaluate the intergroup balance of the baseline data including the demographic characteristics and pre-treatment indicators, wherein the baseline data referred to those collected at the second visit, before the formal administration, the data collected at the first visit on the enrollment stage were used instead if the data at the second visit was lacking; 2) two-way disordered CM-CH11, Kruska-Wilcox test, etc. were used for analysis and intergroup comparison of pre- and post-treatment indicators such as fasting plasma glucose (FPG), HbA1c, plasma glucose at 2 hours post OGTT (2-h PPG), blood pressure, blood lipids, body weight and BMI; 3) adverse events and hypoglycemia events were described in terms of the type, frequency and relevance with the drugs, for safety evaluation. […]

Counter-ions that a name gives are not always drawn.

On to `COc1ccc2cc3[n+](cc2c1OC)CCc1cc2c(cc1-3)OCO2` [Berberine, berberine hydrochloride], for which the “Effect on fasting plasma glucose level (in words)” value is on record as “lowered the fasting plasma glucose level significantly”; the “Post-treatment FPG - pre-treatment FPG, mean value” is -0.2450 mmol/L; the “Post-treatment FPG, mean value” worked out at 6.1300 mmol/L; the “Pre-treatment FPG, mean value” is given as 6.4700 mmol/L.

Consider Bifidobacterium, for which the “Effect on fasting plasma glucose level (in words)” value is given as “no evident effect”; the “Post-treatment FPG - pre-treatment FPG, mean value” came out at 0.0282 mmol/L; the “Post-treatment FPG, mean value” turned out to be 6.4300 mmol/L; the “Pre-treatment FPG, mean value” was 6.4000 mmol/L.

Source of the values: patent publication US20220202882A1, “EFFECT OF COMBINATION OF BIFIDOBACTERIUM AND BERBERINE ON PRE-DIABETES AND TYPE 2 DIABETES” (The Fourth Military Medical University, priority 2018, published 2022).
